From patent publication US20120053197A1, “TRICYCLIC PYRIDINE DERIVATIVES, MEDICAMENTS CONTAINING SUCH COMPOUNDS, THEIR USE AND PROCESS FOR THEIR PREPARATION” (BOEHRINGER INGELHEIM INTERNATIONAL GMBH, priority 2010, published 2012)

Target: T1, recombinant human CETP (Homo sapiens, UniProt P11597)
T1 construct: made in house; host or cells: CHO cells (protein secreted into conditioned medium)
T1 sequence (P11597 18-493): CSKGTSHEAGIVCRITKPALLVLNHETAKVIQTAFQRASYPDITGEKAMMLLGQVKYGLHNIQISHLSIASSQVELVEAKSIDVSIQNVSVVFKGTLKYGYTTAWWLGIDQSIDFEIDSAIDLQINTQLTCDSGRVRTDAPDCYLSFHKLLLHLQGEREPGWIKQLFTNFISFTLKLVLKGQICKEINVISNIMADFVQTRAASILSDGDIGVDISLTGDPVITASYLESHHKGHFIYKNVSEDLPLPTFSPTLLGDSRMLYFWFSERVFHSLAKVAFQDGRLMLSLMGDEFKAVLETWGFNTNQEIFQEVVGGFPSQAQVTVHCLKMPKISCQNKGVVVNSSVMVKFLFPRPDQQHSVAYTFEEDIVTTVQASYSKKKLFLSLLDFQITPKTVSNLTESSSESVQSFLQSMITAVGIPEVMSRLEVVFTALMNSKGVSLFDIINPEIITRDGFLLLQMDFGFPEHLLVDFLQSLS
Experiment: CETP in vitro fluorometric assay (Roar Biomedical), cholesterol ester transfer from HDL to LDL
Assay type: biochemical
Conditions: recombinant human CETP from CHO cells; 3 hours at 37° C.; fluorescence ex 485 nm / em 535 nm; compound concentrations between 1 nM and 30 μM; read-out: IC50 values for inhibition of CETP
Protocol: CETP inhibitory activity of compounds of the present invention can be determined in a fluorometric assay puchased from Roar Biomedical, Inc. (New York, N.Y., USA). […] Recombinant human CETP was partially purified from medium conditioned by CETP expressing CHO cells. In a 384 well format 2.5 μl of compound solution in DMSO was combined with 2 μl of donor solution, 2 μl of acceptor solution and 0.8 μl of recombinant human CETP solution in a total volume of 100 μl with assay buffer and incubated for 3 hours at 37° C. The fluorescence intensity was measured at excitation wavelength of 485 nm and emission wavelength of 535 nm. IC50 values are calculated from dose effect curves from compound concentrations between 1 nM and 30 μM.

Row | SMILES | IC50 [µM]
1 | CC(C)c1nc2c(c3c1[C@@H](c1ccc(C(C)(C)C#N)cc1)OC31CCCC1)[C@@H](O)CC(C)(C)C2 [1(22), 2-(4-((3′R,9′S)-9′-hydroxy-4′-isopropyl-7′,7′-dimethyl-6′,7′,8′,9′-tetrahydro-3′H-spiro[cyclopentane-1,1′-furo[3,4-c]quinoline]-3′-yl)phenyl)-2-methylpropanenitrile] | 0.047
2 | CC(C)c1nc2c(c3c1[C@@H](c1ccc(C(C)(C)C)cc1)OC3(C)C)[C@@H](O)CC(C)(C)C2 [1(18), (3R,9S)-3-(4-tert-butylphenyl)-4-isopropyl-1,1,7,7-tetramethyl-1,3,6,7,8,9-hexahydrofuro[3,4-c]quinolin-9-ol] | 0.363
3 | CC(C)c1nc2c(c3c1[C@H](c1ccc(C(F)(F)F)cc1)OC31CCCC1)[C@@H](O)CC(C)(C)C2 [1(1), (3′S,9′S)-4′-isopropyl-7′,7′-dimethyl-3′-(4-(trifluoromethyl)phenyl)-6′,7′,8′,9′-tetrahydro-3′H-spiro[cyclopentane-1,1′-furo[3,4-c]quinolin]-9′-ol] | 1.43
4 | CC(C)c1nc2c(c3c1[C@@H](c1ccc(F)cc1)OC31CCCC1)[C@@H](O)CC(C)(C)C2 [1(8), (3′R,9′S)-3′-(4-fluorophenyl)-4′-isopropyl-7′,7′-dimethyl-6′,7′,8′,9′-tetrahydro-3′H-spiro[cyclopentane-1,1′-furo[3,4-c]quinolin]-9′-ol] | 0.856
5 | CC(C)Cc1ccc([C@H]2OC3(CCCC3)c3c2c(C(C)C)nc2c3[C@@H](O)CC(C)(C)C2)cc1 [1(27), (3′R,9′S)-3′-(4-isobutylphenyl)-4′-isopropyl-7′,7′-dimethyl-6′,7′,8′,9′-tetrahydro-3′H-spiro[cyclopentane-1,1′-furo[3,4-c]quinolin]-9′-ol] | 0.299
6 | CC1(C)Cc2nc(C3CCOCC3)c3c(c2[C@@H](O)C1)C1(CCOCC1)O[C@@H]3c1ccc(C(F)(F)F)cc1 [1(39), (3R,9S)-7,7-dimethyl-4-(tetrahydro-2H-pyran-4-yl)-3-(4-(trifluoromethyl)phenyl)-2′,3′,5′,6,6′,7,8,9-octahydro-3H-spiro[furo[3,4-c]quinoline-1,4′-pyran]-9-ol] | 0.056
7 | CC1(C)Cc2nc(C3CCCC3)c3c(c2[C@@H](O)C1)C1(CCCC1)O[C@@H]3c1ccc(F)cc1 [1(10), (3′R,9′S)-4′-cyclopentyl-3′-(4-fluorophenyl)-7′,7′-dimethyl-6′,7′,8′,9′-tetrahydro-3′H-spiro[cyclopentane-1,1′-furo[3,4-c]quinolin]-9′-ol] | 0.36
8 | CC(C)c1nc2c(c3c1[C@@H](c1ccc(C(C)(F)F)cc1)OC31CCCC1)[C@@H](O)CC(C)(C)C2 [1(32), (3′R,9′S)-3′-(4-(1,1-difluoroethyl)phenyl)-4′-isopropyl-7′,7′-dimethyl-6′,7′,8′,9′-tetrahydro-3′H-spiro[cyclopentane-1,1′-furo[3,4-c]quinolin]-9′-ol] | 0.062
9 | CC(C)c1nc2c(c3c1[C@@H](c1ccc(C4CC4)cc1)OC31CCCC1)[C@@H](O)CC(C)(C)C2 [1(45), (3′R,9′S)-3′-(4-cyclopropylphenyl)-4′-isopropyl-7′,7′-dimethyl-6′,7′,8′,9′-tetrahydro-3′H-spiro[cyclopentane-1,1′-furo[3,4-c]quinolin]-9′-ol] | 0.122
10 | CC(C)c1nc2c(c3c1[C@@H](c1cc(F)cc(F)c1)OC31CCCC1)[C@@H](O)CC(C)(C)C2 [1(38), (3′R,9′S)-3′-(3,5-difluorophenyl)-4′-isopropyl-7′,7′-dimethyl-6′,7′,8′,9′-tetrahydro-3′H-spiro[cyclopentane-1,1′-furo[3,4-c]quinolin]-9′-ol] | 3.31
11 | CC(C)c1nc2c(c3c1[C@@H](c1ccc(OC(F)(F)F)cc1)OC31CCCC1)[C@@H](O)CC(C)(C)C2 [1(17), (3′R,9′S)-4′-isopropyl-7′,7′-dimethyl-3′-(4-(trifluoromethoxy)phenyl)-6′,7′,8′,9′-tetrahydro-3′H-spiro[cyclopentane-1,1′-furo[3,4-c]quinolin]-9′-ol] | 0.131
12 | CC(=O)O[C@H]1c2nc(C(C)C)c3c(c2[C@@H](O)CC1(C)C)C1(CCCC1)O[C@@H]3c1ccc(C(F)(F)F)cc1 [1(33), (3′R,6′R,9′S)-9′-hydroxy-4′-isopropyl-7′,7′-dimethyl-3′-(4-(trifluoromethyl)phenyl)-6′,7′,8′,9′-tetrahydro-3′H-spiro[cyclopentane-1,1′-furo[3,4-c]quinoline]-6′-yl acetate] | 0.229
13 | CC(C)c1nc2c(c3c1[C@@H](c1ccc(C(F)(F)F)cc1)OC31CCCC1)[C@@H](O)CC(C)(C)[C@H]2O [Example 3, (3′R,6′R,9′S)-4′-isopropyl-7′,7′-dimethyl-3′-(4-(trifluoromethyl)phenyl)-6′,7′,8′,9′-tetrahydro-3′H-spiro[cyclopentane-1,1′-furo[3,4-c]quinoline]-6′,9′-diol] | 0.02
14 | CC(C)c1nc2c(c3c1[C@@H](c1cnc(C(C)(C)C)nc1)OC31CCCC1)[C@@H](O)CC(C)(C)C2 [1(25), (3′R,9′S)-3′-(2-tert-butylpyrimidin-5-yl)-4′-isopropyl-7′,7′-dimethyl-6′,7′,8′,9′-tetrahydro-3′H-spiro[cyclopentane-1,1′-furo[3,4-c]quinolin]-9′-ol] | 0.772
15 | CC1(C)Cc2nc(C3CCOCC3)c3c(c2[C@@H](O)C1)C1(CCCC1)O[C@@H]3c1ccc(C(F)(F)F)cc1 [1(5), (3′R,9′S)-7′,7′-dimethyl-4′-(tetrahydro-2H-pyran-4-yl)-3′-(4-(trifluoromethyl)phenyl)-6′,7′,8′,9′-tetrahydro-3′H-spiro[cyclopentane-1,1′-furo[3,4-c]quinolin]-9′-ol] | 0.042
16 | Cc1ccc([C@H]2OC3(CCCC3)c3c2c(C(C)C)nc2c3[C@@H](O)CC(C)(C)C2)cc1 [1(14), (3′R,9′S)-4′-isopropyl-7′,7′-dimethyl-3′-p-tolyl-6′,7′,8′,9′-tetrahydro-3′H-spiro[cyclopentane-1,1′-furo[3,4-c]quinolin]-9′-ol] | 0.409
17 | CC(C)c1nc2c(c3c1[C@@H](c1ccc(C(C)(C)O)cc1)OC31CCCC1)[C@@H](O)CC(C)(C)C2 [1(26), (3′R,9′S)-3′-(4-(2-hydroxypropan-2-yl)phenyl)-4′-isopropyl-7′,7′-dimethyl-6′,7′,8′,9′-tetrahydro-3′H-spiro[cyclopentane-1,1′-furo[3,4-c]quinolin]-9′-ol] | 0.875
18 | CC1(C)Cc2nc(C3CCCC3)c3c(c2[C@@H](O)C1)C1(CCCC1)O[C@@H]3c1cccc(C(C)(C)C)c1 [1(31), (3′R,9′S)-3′-(3-tert-butylphenyl)-4′-cyclopentyl-7′,7′-dimethyl-6′,7′,8′,9′-tetrahydro-3′H-spiro[cyclopentane-1,1′-furo[3,4-c]quinolin]-9′-ol] | 1.07
19 | CC(C)(C)c1ccc([C@H]2OC3(CCCC3)c3c2c(C2CCOCC2)nc2c3[C@@H](O)CC(C)(C)[C@H]2O)cc1 [Example 4, (3′R,6′R,9′S)-3′-(4-tert-butylphenyl)-7′,7′-dimethyl-4′-(tetrahydro-2H-pyran-4-yl)-6′,7′,8′,9′-tetrahydro-3′H-spiro[cyclopentane-1,1′-furo[3,4-c]quinoline]-6′,9′-diol] | 0.062
20 | CC(C)c1nc2c(c3c1[C@H](c1ccc(C(F)(F)F)cc1)O[C@]31C=CCC1)[C@@H](O)CC(C)(C)C2 [1(2), (1R,3′S,9′S)-4′-isopropyl-7′,7′-dimethyl-3′-(4-(trifluoromethyl)phenyl)-6′,7′,8′,9′-tetrahydro-3′H-spiro[cyclopent[2]ene-1,1′-furo[3,4-c]quinolin]-9′-ol] | 4.68
21 | CC(C)c1nc2c(c3c1[C@@H](c1ccc(C(F)(F)F)nc1)OC31CCCC1)[C@@H](O)CC(C)(C)C2 [1(12), (3′R,9′S)-4′-isopropyl-7′,7′-dimethyl-3′-(6-(trifluoromethyl)pyridin-3-yl)-6′,7′,8′,9′-tetrahydro-3′H-spiro[cyclopentane-1,1′-furo[3,4-c]quinolin]-9′-ol] | 0.15
22 | CC(=O)O[C@@H]1c2nc(C(C)C)c3c(c2[C@@H](O)CC1(C)C)C1(CCCC1)O[C@@H]3c1ccc(C(F)(F)F)cc1 [1(34), (3′R,6′S,9′S)-9′-hydroxy-4′-isopropyl-7′,7′-dimethyl-3′-(4-(trifluoromethyl)phenyl)-6′,7′,8′,9′-tetrahydro-3′H-spiro[cyclopentane-1,1′-furo[3,4-c]quinoline]-6′-yl acetate] | 0.137
23 | CC(C)c1nc2c(c3c1[C@@H](c1ccc(C(F)(F)F)cc1)OC31CCOCC1)[C@@H](O)CC(C)(C)C2 [1(30), (3R,9S)-4-isopropyl-7,7-dimethyl-3-(4-(trifluoromethyl)phenyl)-2′,3′,5′,6,6′,7,8,9-octahydro-3H-spiro[furo[3,4-c]quinoline-1,4′-pyran]-9-ol] | 0.018
24 | CC(C)c1ccc([C@H]2OC3(CCCC3)c3c2c(C(C)C)nc2c3[C@@H](O)CC3(CCC3)C2)cc1 [1(35), (3′R,9′S)-4′-isopropyl-7′,7′-(propan-1,3-diyl)-3′-(4-(isopropyl)phenyl)-6′,7′,8′,9′-tetrahydro-3′H-spiro[cyclopentane-1,1′-furo[3,4-c]quinolin]-9′-ol] | 0.052
